For 35 compounds, Kd results are on record in ChEMBL document CHEMBL1133175, “QSAR analysis of Delta(8)-THC analogues: relationship of side-chain conformation to cannabinoid receptor affinity and pharmacological potency” (J Med Chem, 2000).

A value given as a limit tells only on which side of the number the result lay.

The target of one test is T1, Cannabinoid receptor 1 (Homo sapiens, UniProt P21554). Description: Tested for binding affinity against Cannabinoid receptor 1 (CB1).
T1 sequence (P21554 whole entry): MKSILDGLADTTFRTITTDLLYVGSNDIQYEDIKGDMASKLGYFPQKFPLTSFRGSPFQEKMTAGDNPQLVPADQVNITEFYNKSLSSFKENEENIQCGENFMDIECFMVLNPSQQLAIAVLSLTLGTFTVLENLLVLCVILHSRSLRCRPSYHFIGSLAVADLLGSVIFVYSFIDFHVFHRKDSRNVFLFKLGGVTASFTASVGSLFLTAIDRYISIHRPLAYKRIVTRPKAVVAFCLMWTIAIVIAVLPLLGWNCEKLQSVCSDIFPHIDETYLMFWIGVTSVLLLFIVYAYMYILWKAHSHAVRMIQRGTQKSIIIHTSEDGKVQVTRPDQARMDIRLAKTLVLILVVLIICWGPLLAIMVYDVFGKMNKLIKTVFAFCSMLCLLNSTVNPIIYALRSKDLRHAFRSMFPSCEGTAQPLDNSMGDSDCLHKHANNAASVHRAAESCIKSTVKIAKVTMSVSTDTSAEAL
As a reminder, the Kd is the concentration at which binding is half-saturated. Low values mean higher affinity, high ones lower affinity. Take `CCCCCC#CCc1cc(O)c2c(c1)OC(C)(C)C1CC=C(C)CC21` (stereo not given): the Kd is 4.9 nM.
Still for that read-out and setting: next, `C#CCCCC#CCc1cc(O)c2c(c1)OC(C)(C)C1CC=C(C)CC21` (stereo not given): 4.7 nM.

The target of another test is T1, Cannabinoid receptor 1. The test is described as follows: Tested for binding affinity against Cannabinoid receptor 1 (CB1).
On to `CC1=CCC2C(C1)c1c(O)cc(C/C=C/CCCC[N+](=O)[O-])cc1OC2(C)C` (stereo not given), for which the affinity, expressed as Kd, was 3.56 nM.
The same measure, in the same setting: then `CC1=CCC2C(C1)c1c(O)cc(C/C=C/CCCF)cc1OC2(C)C` (stereo not given), with 20.9 nM.
Same read-out and setting: next, `CCCCCCC(C)(C)c1cc(O)c2c(c1)OC(C)(C)C1CC=C(C)CC21` (stereo not given): 0.77 nM; `CC(=O)NCCC/C=C/Cc1cc(O)c2c(c1)OC(C)(C)C1CC=C(C)CC21` (stereo not given): 16.7 nM.
The same measure, in the same setting: then `CCCCCC#Cc1cc(O)c2c(c1)OC(C)(C)C1CC=C(C)CC21` (stereo not given), with 36 nM; and `CC1=CCC2C(C1)c1c(O)cc(C/C=C/CCCO)cc1OC2(C)C` (stereo not given), with 53.7 nM; and `CC1=CCC2C(C1)c1c(O)cc(CC#CCCO)cc1OC2(C)C` (stereo not given), with 448 nM.
Turning to `CC1=CCC2C(C1)c1c(O)cc(CC#CC(C)Br)cc1OC2(C)C` (stereo not given), the Kd was determined as 25 nM.
Turning to `CC(=O)NCCC#CCc1cc(O)c2c(c1)OC(C)(C)C1CC=C(C)CC21` (stereo not given), the Kd is 307 nM.
Same read-out and setting: next, `COCCC/C=C/Cc1cc(O)c2c(c1)OC(C)(C)C1CC=C(C)CC21` (stereo not given): 11.5 nM.

The target of another test is T1, Cannabinoid receptor 1. Description: Binding affinity against Cannabinoid receptor 1.
Compound `CC1=CCC2C(C1)c1c(O)cc(C#CCCCC#N)cc1OC2(C)C` (stereo not given) had a Kd of 104 nM.
As for `C#CCCCC#Cc1cc(O)c2c(c1)OC(C)(C)C1CC=C(C)CC21` (stereo not given), the equilibrium dissociation constant (Kd) worked out at 460 nM.
On the same count and under the same terms, then `C#CCCc1cc(O)c2c(c1)OC(C)(C)C1CC=C(C)CC21` (stereo not given), with 367 nM; and `CC1=CCC2C(C1)c1c(O)cc(CC#CCCC[N+](=O)[O-])cc1OC2(C)C` (stereo not given), with 5.34 nM.
`CCCCC#CCCc1cc(O)c2c(c1)OC(C)(C)C1CC=C(C)CC21` (stereo not given) came in with a Kd of 9 nM.
As to `CCCCC/C=C/Cc1cc(O)c2c(c1)OC(C)(C)C1CC=C(C)CC21` (stereo not given), the Kd was 3.19 nM.
In turn, `CC1=CCC2C(C1)c1c(O)cc(CC#CCCC#N)cc1OC2(C)C` (stereo not given) came in with a Kd of 31 nM.
Same read-out and setting: then `CCCCCCC#CCc1cc(O)c2c(c1)OC(C)(C)C1CC=C(C)CC21` (stereo not given), with 3.7 nM; and `CC1=CCC2C(C1)c1c(O)cc(C=C=CCCCC(=O)O)cc1OC2(C)C` (stereo not given), with 3170 nM.
The compound `CC1=CCC2C(C1)c1c(O)cc(C/C=C/CCCC#N)cc1OC2(C)C` (stereo in doubt; 29) showed a Kd of 0.77 nM.
For `CCCC#CCc1cc(O)c2c(c1)OC(C)(C)C1CC=C(C)CC21` (stereo not given), the Kd was found to be 11 nM.
On the same count and under the same terms, then `CCC/C=C/CCCc1cc(O)c2c(c1)OC(C)(C)C1CC=C(C)CC21` (stereo not given), with 11 nM; and `CCCCCC#CCc1cc(OC)c2c(c1)OC(C)(C)C1CC=C(C)CC21` (stereo not given), with 189 nM; and `COC(=O)C#CCc1cc(O)c2c(c1)OC(C)(C)C1CC=C(C)CC21` (stereo not given), with 731 nM.
Same read-out and setting: next, `CC1=CCC2C(C1)c1c(O)cc(CC#CCCCBr)cc1OC2(C)C` (stereo not given): 1.2 nM; `CCCCC/C=C/c1cc(O)c2c(c1)OC(C)(C)C1CC=C(C)CC21` (stereo not given): 0.86 nM; `CCCC/C=C/CCc1cc(O)c2c(c1)OC(C)(C)C1CC=C(C)CC21` (stereo not given): 3.36 nM.
Still for that read-out and setting: next, `CC1=CCC2C(C1)c1c(O)cc(CC#CCBr)cc1OC2(C)C` (stereo not given): 143 nM; `CC1=CCC2C(C1)c1c(O)cc(C/C=C/CCCBr)cc1OC2(C)C` (stereo not given): 1.66 nM.
For `COC(=O)C#CCCc1cc(O)c2c(c1)OC(C)(C)C1CC=C(C)CC21` (stereo not given), the dissociation constant Kd was > 10000 nM.
Same read-out and setting: then `CC1=CCC2C(C1)c1c(O)cccc1OC2(C)C` (stereo not given), with 45 nM; and `CCCC#CCCCc1cc(O)c2c(c1)OC(C)(C)C1CC=C(C)CC21` (stereo not given), with 19 nM; and `CC1=CCC2C(C1)c1c(O)cc(C/C=C/CCCC#N)cc1OC2(C)C` (stereo in doubt; 30), with 1.25 nM.
